Results reported in US6921749B1, “Polypeptides derived from endostatin exhibiting antiangiogenic activity” (Universita' Degli Studi di Milano, priority 1999, dated 2005).
Where no end group is shown, it is not given here. The star is where a group is joined. tBu = CC(C)(C)*

What was measured:
[1] = tested on: microvascular endothelial cells; details: E. coli expressed protein; cited from earlier work
[2] = tested on: coronary venular endothelial cells (CVEC); assay: Proliferation studies (total cell number), postcapillary venule endothelial cells; format: cell-based, bovine; details: 10 to 1000 ng/ml, 48 hr, FGF-2 and VEGF 20 ng/ml each
Description: The coronary venular endothelial cells (CVEC) were isolated and cultured as previously described (8).
Cell proliferation was quantified by total cell number as reported (12,13).
Cell proliferation was quantified by counting the total number of cells after 48 hr treatment. Endothelial cells isolated from postcapillary venules were used to test the effect on angiogenesis. […] The effect was more pronounced on FGF-2-induced growth. […] Similar effects were obtained on all the endothelial cell lines tested (FIG. 1E).
C-E: Effect of endostatin fragments on endothelial cell proliferation. Endothelial cell (C,D: CVEC; E, MAE) proliferation was stimulated with FGF-2 and VEGF (20 ng/ml each). Data are expressed as number of cells counted/well after 48 hr incubation with test substances. Numbers are means±SEM of 6 and 2 experiments run in triplicate for CVEC and ME, respectively.

mouse aorta rings = assay: Vascular sprouting in vitro in three-dimensional fibrin gels; format: cell-based; details: vascular rings in 3D fibrin gels, day 3
Description: Vascular sprouting from mouse aorta rings was assessed in three-dimensional fibrin gels preparations according to the method described by Brown et al (15), with minor modifications. Quantitative evaluation of newly formed structures was carried out at day 3. The area covered by vascular sprouts was quantified in microscopic units (0.21 mm^2).
The formation of capillary-like structures in vascular rings cultured in 3D fibrin gels was used to test angiogenesis in vitro. Fragment I and IV inhibited the spontaneous growth of capillaries and the one induced by FGF-2 and VEGF. As an example the effect of 100 ng/ml concentration of either fragment is shown (FIG. 3A).
FIG. 3: Effect of endostatin fragments on angiogenesis in vitro (A) and in vivo (B). A. In vitro vessel sprouting from rings of mouse aortas was induced by FGF-2 (10 ng/ml). Fragments I and IV were used at […]. Data are reported as mean area occupied by tubules-like structures after 3 days from stimulation. Numbers are means of one representative experiment out of two run in triplicate.

endothelial cells = assay: In vitro inhibition test on endothelial cells proliferation and migration; format: cell-based
Description: These polypeptides have remarkable antiangiogenic activity in the in vitro inhibition test on endothelial cells proliferation and migration (16).

endostatin
FGF-2 and VEGF induced proliferation and migration [1]: able to block

Cys-Glu-Thr-Trp-Arg-Thr-Glu-Thr-Thr-Gly-Ala-Thr-Gly-Gln-Ala-Ser-Ser-Leu-Leu-Ser-Gly-Arg-Leu-Leu-Glu-Gln-Lys-Ala-Ala-Ser-Cys-His-Asn-Ser-Tyr-Ile-Val-Leu-Cys(tBu)-Ile-Glu-Asn-Ser-Phe-Met-Thr-Ser-Phe-Ser-Lys (CETWRTETTGATGQASSLLSGRLLEQKAASCHNSYIVLC(tBu)IENSFMTSFSK; cysteine pairing not given here) [Fragment IV]
cell growth induced by FGF-2 and VEGF [2]: most potent | growth of capillaries induced by FGF-2 and VEGF (mouse aorta rings): inhibited | spontaneous growth of capillaries (mouse aorta rings): inhibited

His-Thr-His-Gln-Asp-Phe-Gln-Pro-Val-Leu-His-Leu-Val-Ala-Leu-Asn-Thr-Pro-Leu-Ser-Gly-Gly-Met-Arg-Gly-Ile-Arg-Gly-Ala-Asp-Phe-Gln-Cys(tBu)-Phe-Gln-Gln-Ala-Arg-Ala (HTHQDFQPVLHLVALNTPLSGGMRGIRGADFQC(tBu)FQQARA) [Fragment I]
growth of capillaries induced by FGF-2 and VEGF (mouse aorta rings): inhibited | spontaneous growth of capillaries (mouse aorta rings): inhibited | potency compared with endostatin (endothelial cells): equipotential to endostatin
